The record followed here is patent publication US11344527B2, “Methods and compositions for treating cancer” (Sutter West Bay Hospitals, priority 2007, dated 2022).

In test [1] the test system is Id-1. Description: Id-1 protein expression by quantitative Western analysis, MDA-MB231. Format: cell-based, human. To be noted: MDA-MB231 cells, 1.5 μM, two days, FIG. 1E. From the text: Proteins were separated by SDS/PAGE, blotted on Immobilon membrane, and probed with anti-Id-1 and the appropriate secondary antibody. Band intensity values were obtained directly from the blot using AlphaeaseFC software (San Leandro, Calif.) or from film using Image-J (NIH, MD). As a normalization control for loading, blots were stripped and re-probed with mouse alpha-tubulin (Abeam, Cambridge, Mass.).
The ability of CBD to regulate the expression of key genes that control breast cancer cell aggressiveness and invasiveness was determined A potential candidate protein that could mediate the effects of CBD on both phenotypes was the helix-loop-helix protein Id-1. […] The inhibitory effect of CBD on Id-1 expression occurred at concentrations as low as 100 nM. […] The CBD concentrations effective at inhibiting Id-1 expression correlated with those used to inhibit the proliferative and invasive phenotype of MDA-MB231 cells. Furthermore, the time period needed to observe the down-regulation of Id-1 protein in the presence of CBD correlated with the inhibitory effects of CBD on the aggressiveness and invasiveness of MDA-MB231 cells (FIG. 1, panel D).
In order to determine the SAR between cannabinoids and the inhibition of Id-1, MDA-MB231 cells were treated for two days with multiple cannabinoid compounds and Id-1 protein levels were assessed.

For test [2], the system named is SF126 cells. As to the kind of experiment: MTT cell proliferation assay, SF126 GBM cells. Format: cell-based, human. Here is the method:
(§1) The human GBM cell lines used were SF126, U87 and U251. Cell lines were maintained at 37° C. and 5% CO2.
(§2) Treatment groups were divided into 1) no treatment (control), 2) Δ^9-THC alone, 3) CBD alone, 4) Δ^9-THC and CBD combined. Positive and negative aspects of constituent interaction were determined in this 2×2 design using 2-way analysis of variance as described by (Slinker, 1998). […] Significant differences were also determined using ANOVA where suitable. […] P values <0.05 defined statistical significance.
Background: Formazan colour is commonly taken as a measure of viable cells.

In test [3] the test system is U87 cells. Description: MTT cell proliferation assay, U87 GBM cells. Format: cell-based, human. To be noted: 95% confidence limits. Here is the method:
as §1, §2

Test [4] concerns U251 cells. Description: Cell cycle analysis (PI staining, FACS), U251. The class given is cell-based, human. The settings on record: Δ9-THC 1.7 μM and/or CBD 0.4 μM, FIG. 8. Here is the method: U251 cells were grown in Petri dishes (100 mm×15 mm) and received drug treatments for 2 days. On the third day, the cells were harvested and centrifuged at 1200 rpm for 5 minutes. The pellet was washed 1× with PBS+1% BSA, and centrifuged again. The pellet was resuspended in 0.5 ml of 2% paraformaldehyde (diluted with PBS) and left to fix overnight at room temperature. The next day the cells were pelleted and resuspended in 0.5 ml 0.3% Triton in PBS and incubated for 5 minutes at room temperature. The cells were then washed 2 times with PBS+1% BSA. The cells were finally suspended in PBS (0.1% BSA) with 10 ug/ml Propidium Iodide and 100 μg/ml RNAse. The cells were incubated for 30 minutes at room temperature before being stored at 4 C. Cell cycle was measured using a FACS Calibur using Cell Quest Pro and Modfit software.

Test [5] relates to ERK, JNK, and p38 MAPK. As to the kind of experiment: MAPK activity (pERK, ERK, JNK, p38) by Western analysis, U251. The class given is cell-based, human. Here is the method: Cells cultured and treated in 6-well dishes were washed twice with cold PBS. Lysis buffer was added and cells lysed by freezing for 10 min at −70° C. and then thawing. Cell lysate was collected and the concentration was determined using Bradford reagent. Equal amounts of protein were heated to 90° C. in Laemmli sample buffer with β-mercaptoethanol, and loaded onto a precast SDS-PAGE gel (Bio-Rad Laboratories, Hercules, Calif.). Protein was transferred to an Immobilon membrane (Millipore, Billerica, Mass.) overnight at 2-4° C. Blots were then blocked with 5% nonfat dry milk in TBS+Tween for 1 h. Primary antibody from Millipore (rabbit anti-phospho-JNK, rabbit anti-phospho-p38, rabbit anti-phospho-ERK1/2 and rabbit anti-ERK1/2, 1 mcg/mL) in blocking buffer was then added for 1 h. The blots were then rinsed three times 10 min with TBS+Tween. Secondary antibody (Donkey Anti-Rabbit IgG, Jackson Immunoresearch, West Grove, Pa.) was then added. Blots were incubated for 45 min and then washed 4 times for 15 min each. The blots were developed with SuperSignal Femto (Pierce, Rockford, Ill.), and imaged on either a Fluorchem 8900 (Alpha Innotech, San Leandro, Calif.) or ECL Hyperfilm (Amersham-Pharmacia, Piscataway, N.J.). Band intensity values were obtained (after background subtraction) directly from the […] using AlphaeaseFC software (San Leandro, Calif.) or from film using Image-J (NIH, MD). As a normalization control for loading, blots were stripped and re-probed with mouse alpha-tubulin (Abcam, Cambridge, Mass.) and goat anti-mouse IgG (Jackson Immunoresearch) for the primary and secondary antibodies, respectively.
The regulation of ERK, JNK, and p38 MAPK activity plays a role in controlling cell growth and apoptosis. U251 cells were used to determine whether modulation of ERK, JNK, and p38 MAPK activity occurred.

Test [6] relates to U251 cells. As to the kind of experiment: MTT cell proliferation assay, U251 GBM cells. The class given is cell-based, human. To be noted: 95% confidence limits. Here is the method: as §1, §2
The test system of test [7] is Id-1. Description: Id-1 protein expression by Western blot, U251. The settings on record: FIG. 11. Format: cell-based, human. For orientation: A western blot detects proteins with antibodies after separation by electrophoresis.
Test [8] deals with MDA-MB231 cells. As to the kind of experiment: Boyden chamber invasion assay, MDA-MB231. Format: cell-based, human. To be noted: for invasion of MDA-MB231 cells: 0.1, 1.0 or 1.5 μM, FIG. 1A. Here is the method:
Invasion is an important step towards breast cancer cell metastasis. Therefore, the effects of several cannabinoids were tested on their ability to modulate the migratory and invasiveness activity of the most aggressive human breast cancer cell line, MDA-MB231, in a reconstituted basement membrane in a Boyden chamber.

For test [9], the system named is MDA-MB436 cells. As to the kind of experiment: MTT cell proliferation assay, MDA-MB436. To be noted: read-out: IC50 antiproliferative, MDA-MB436.
For test [10], the system named is Id-1 promoter. Description: Id-1 promoter luciferase reporter assay, MDA-MB231. Format: cell-based, human. To be noted: MDA-MB231 cells, 1.5 μM, 2 or 3 days; FIG. 2B, C. Here is the method: A SacI-BspHI fragment of 2.2 kb corresponding to the 5′ upstream region of human Id-1 gene and driving a luciferase gene in a PGL-3 vector (Promega) has already been described (Id-1-sbsluc). Cells were plated in six well dishes in medium supplemented with 10% FBS and 5 μg/ml insulin. After 24 h, cells were cotransfected with […] of luciferase reporter plasmids and 2 μg of pCMVβ (Clontech) using superfect reagent (Qiagen). pCMVβ contained bacterial β-galactosidase and served to control for variation in transfection efficiency. 3 h after transfection, the cells were rinsed twice with PBS and were cultured in the absence or presence of CBD for 48-72 h. Cell pellets were lysed in 80 μl of reporter lysis buffer (Promega) for 10 min at room temperature. Lysed cells were centrifuged and supernatants harvested. […]
To determine if this effect was due to the inhibition of transcription, a construct was used that contained the Id-1 promoter fused to a luciferase reporter in a PGL-3 basic vector. […] Twenty-four hours after transfection, MDA-MB231-Id-1-luc cells were treated with CBD for 2 or 3 days and luciferase activity was measured (FIG. 2, panel B and panel C). […] These findings correlated to the data obtained when the expression of the Id-1 protein was assessed by Western analysis.

Test [11] has as its system MDA-MB231 cells. As to the kind of experiment: MTT cell proliferation assay, MDA-MB231. The settings on record: read-out: IC50 antiproliferative, MDA-MB231.
The mark [12] stands for this setting: Homo sapiens, SF-126, 72 h, three day treatment, 95% confidence limits (Table 4), read-out: IC50 antiproliferative, SF126.
Setting [13] is: three day treatment, 95% confidence limits (Table 4), read-out: IC50 antiproliferative, SF126.
Setting [14] is: treated for three days, value with confidence limits.

“Also recorded” adds a separate entry of the source. Where two headings read alike, the source gives them in different places.

Take `C=C(C)[C@@H]1CCC(C)=C[C@H]1c1c(C)cc(O)cc1O` [0-1602]: the “inhibition of Id-1 protein (structure activity relationship)” value (shortened to “inhibition of Id-1 protein”) in [1] was “No inhibition”.

With `C=C(C)[C@@H]1CCC(C)=C[C@H]1c1c(O)cc(O)cc1CCCCC` [Abn-CBD], the “inhibition of Id-1 protein” value in test [1] is given as “No inhibition”.

For orientation: IC50 means the point on the concentration scale where inhibition reaches its midpoint. Take `C=C(C)[C@@H]1CCC(C)=C[C@H]1c1c(O)cc(CCCCC)cc1O` [CBD, cannabidiol]: the IC50 in test [2] (setting [12]) came to 1200 nM; in test [2] (Homo sapiens, SF-126, 72 h, three day treatment, 95% confidence limits, read-out: CBD IC50, SF126) it was 1200 nM; in [2] (Homo sapiens, SF-126, limits 0.64-0.82, reported with the Table 3 experiments, read-out: IC50 antiproliferative, SF126) it was 730 nM; in [3] (Homo sapiens, U-87 MG, 72 h, three day treatment, read-out: CBD IC50, U87), 700 nM; in test [6] (Homo sapiens, U-251, 72 h, three day treatment, read-out: CBD IC50, U251), 600 nM; in [9] (Homo sapiens, MDA-MB-436, 72 h) it was 1500 nM. Moreover, in test [4], the cell cycle distribution result was “increases in the population of cells in G1 and G2/M phase and decreases in cells in S phase”. In test [5] (U251, three days, 2.5 μM Δ9-THC, 2.0 μM CBD, or 1.7 μM/0.4 μM combination, FIG. 6D), the “p-ERK, higher concentrations alone compared with the combination” value is given as “small inhibition”. For the same molecule, in [5] (U251, Δ9-THC 1.7 μM and/or CBD 0.4 μM, two days, FIG. 4), the p-ERK entry was “no changes”. Moreover, the “Id-1 protein expression in U251 cells” value in [7] was “concentration-dependent inhibition”. Further, the “cell invasiveness, control MDA-MB231 (-Id1) cells” value in test [8] (1.5 μM, two day treatment, empty pLXSN vector, FIG. 7) is reported as “significant reduction”. In addition, the “invasion of MDA-MB231 cells” value in test [8] was “significantly reduced”. Moreover, the “Id-1 promoter luciferase activity” value in [10] is recorded as “significant inhibition”.

As to `CCCCCc1cc(O)c(C/C=C(\C)CCC=C(C)C)c(O)c1` [CBG, cannabigerol], the IC50 in [2] (setting [12]) is 1600 nM; in [11] (Homo sapiens, MDA-MB-231, 72 h), 2300 nM; in test [9] (Homo sapiens, MDA-MB-436, 72 h), 2100 nM.

For `CCCCCc1cc(O)c2c(c1)OC(C)(C)c1ccc(C)cc1-2` [CBN, cannabinol], the IC50 stood at 1200 nM in test [2] (setting [12]); 1200 nM in [11] (Homo sapiens, MDA-MB-231, 72 h); 2600 nM in test [9] (Homo sapiens, MDA-MB-436, 72 h). Also, the “inhibition of Id-1 protein” value in [1] is reported as “partially inhibit”.

Regarding `CCCCCCC(C)(C)c1ccc([C@@H]2C[C@H](O)CC[C@H]2CCCO)c(O)c1` [CP 55,940], the values for the IC50 in test [2] (setting [13]), in test [11] (setting [14]) and in test [9] (setting [14]) were 3300 nM, 2500 nM and 1300 nM, respectively. Further, the “inhibition of Id-1 protein” value was “partially inhibit; also recorded: inhibited Id-1 expression” in [1] and “small inhibition” in [1] (940).

`Cc1c(C(=O)c2cccc3ccccc23)c2cccc3c2n1[C@H](CN1CCOCC1)CO3` [WIN 55,212-2]: the IC50 in [2] (seven day treatment, 95% confidence limits, read-out: IC50 antiproliferative, SF126) stood at 840 nM; in test [2] (setting [13]) it was 1300 nM; in test [3] (seven day treatment, read-out: IC50 antiproliferative, U87) it was 770 nM; in [6] (seven day treatment, read-out: IC50 antiproliferative, U251), 1100 nM; in [11] (setting [14]) it was 1700 nM; in test [9] (setting [14]) it was 2400 nM. Besides, in [8], the “invasion of MDA-MB231 cells” value is reported as “significantly reduced”.
